For one substance, IC50 results are on record in patent US5395823A, “Neuropeptide Y agonists and partial agonists” (Merrell Dow Pharmaceuticals Inc., priority 1993, dated 1995).

In this assay the target is receptors for neuropeptide Y (porcine spleen crude membranes). As to the kind of experiment: 125I-Bolton-Hunter-neuropeptide Y binding in porcine spleen crude membranes. Conditions: competition with 0.1 nM BHNPY, room temperature 2 hr, pH 7.4. The procedure:
145:21-9 (1988). ^125 I-Bolton-Hunter-neuropeptide Y (BHNPY; Amersham) binding was carried out in porcine spleen crude membranes. Membranes from frozen spleen were prepared as described previously for tachykinin peptide binding studies (Buck et al., 1984). An aliquot of membrane preparation (approximately 15 mg tissue) was incubated at room temperature for 2 hr in buffer (pH 7.4) containing the peptide analog, 130 mM NaCl, 2.7 mM KCl, 2 mM MgCl2, 1.8 mM CaCl2, 20 mM HEPES, 4 mg/ml BSA, 40 μg/ml bacitracin, 4 μg/ml leupeptin and […] chymostatin. BHNPY was included in a concentration of 0.1 nM and non-specific binding was determined by the inclusion of 1 μM pNPY. Samples were rapidly filtered over Whatman GF/C filters presoaked overnight in 0.5% histone (type II-AS; Sigma) and washed two times with ice-cold, plain HEPES-salt buffer (pH 7.4). IC50 values for test peptides were calculated from 6 to 10 point competition curves.

Broadly, the IC50 is the concentration at which inhibition is half-maximal. A low value points to greater potency. Take “Y--P--S--K--P--D--N--P--G--E--D--A--P--A--E--E--L--S--Y--Y--A--A--L--R--H- -Y--L--N--L--L--T--R--Q--R--Y--# [Example 1]”: the IC50 is less than 50 nM.
